Counter-ions that a name gives are not always drawn.
Experiments:
Assay type in all cases: cell-based, human
[1] = test system: Hep G2; test: WST-1 viability assay, Hep G2 cells; conditions: Hep G2, 72 h incubation, WST-1, four replicates
Method: (§1) Based on the novelty of the IMBcat compound, we aimed to evaluate its in vitro cytotoxicity in selected model cell lines as well as to determine the toxicity of the IBMcat enantiomers, since both the chemical structure and chirality of compounds could play a role in their bioactivity (Table 2). The cytotoxic profile of the IBMcat was determined by a WST-1 viability assay after 72-h treatment. For this purpose, cell lines derived from distinct tissues, often affected by NPSs, were chosen, i.e., cells of kidney, hepatic, neural, urinary, and intestinal origin as well as keratinocytes and primary fibroblasts (HEK 293T, Hep G2, HMC-3, SH-SY5Y, 5637, CaCo-2, HaCaT, MRC-5, and BJ, respectively). The cytotoxicity of IBMcat and its enantiomers was concentration- and cell-line dependent, the IC50 values, which were in the micromolar range, are given in Table 2. […] This was followed by embryonic kidney cells HEK 293T (immortalized), in which the toxicity ranged between a concentration of 123 and 192 µM.
(§2) In this study, the following cell lines were used: HEK 293T, Hep G2, HMC-3, SH-SY5Y, 5637, CaCo-2, HaCaT, MRC-5, BJ, and L929. […] The selected cell lines were chosen so that not only primary noncancerous cells are evaluated but also cells derived from tissues, which are the most often affected by novel synthetic drugs, i.e., kidney, liver, urinary bladder, and nervous tissue. […]
(§3) The cytotoxicity of IBMCat was evaluated in vitro by using a WST-1 viability assay (Sigma-Aldrich, Saint Louis, MO, USA) based on the transformation of a tetrazolium salt into colored formazan in metabolically active cells. […] After 72 h of additional incubation of the cells, their viability was determined by WST-1. […] The cells were incubated for 2 h, after which absorbance of the raised formazan was measured spectrophotometrically at 450 nm (reference wavelength of 630 nm) using a UV-Vis spectrometer (Bio-Rad Laboratories, Hercules, CA, USA). […] The half-maximal inhibitory concentrations (IC50) were calculated from the measured dose–response curves by AAT Bioquest.

[2] = test system: HMC-3; test: WST-1 viability assay, HMC-3 cells; conditions: HMC-3, 72 h incubation, WST-1, four replicates
Method: as §1, §2, §3

[3] = test system: 5637; test: WST-1 viability assay, 5637 cells; conditions: 5637, 72 h incubation, WST-1, four replicates
Method: as §1, §2, §3

Compound	IC50 ([1]; Homo sapiens, HepG2) [µM]	IC50 ([2]; Homo sapiens, HMC3) [µM]	IC50 ([3]; Homo sapiens) [µM]	IC50 [1] [µM]	IC50 [2] [µM]	IC50 [3] [µM]
CNC(C)C(=O)c1ccc(CC(C)C)cc1.Cl (stereo not drawn) [IBMcat, 4-isobutylmethcathinone hydrochloride]	52 ± 7	61 ± 2	18 ± 1	–	–	–
CN[C@H](C)C(=O)c1ccc(CC(C)C)cc1 [R-IBMCat]	–	–	–	49 ± 1	65 ± 2	20 ± 1
CN[C@@H](C)C(=O)c1ccc(CC(C)C)cc1 [S-IBMCat, (S)-4-isobutylmethcathinone hydrochloride]	46 ± 9	64 ± 1	21 ± 4	–	–	–

— publication PMC9780888, “4-Isobutylmethcathinone—A Novel Synthetic Cathinone with High In Vitro Cytotoxicity and Strong Receptor Binding Preference of Enantiomers” (Pharmaceuticals, 2022)
